Test results reported in patent US4062950A, “Amino sugar derivatives” (priority 1973, dated 1977).

Biological target: T1, saccharase (Sus scrofa, UniProt P56729)
T1 construct: sucrase subunit of the sucrase-isomaltase complex hydrolyses sucrose
Experiment: In vitro saccharase test
Assay type: biochemical, pig
Conditions: isolated isomer, Example 19
Description: One saccharase inhibitor unit (SIU) is defined as the amount of inhibitor which inhibits two saccharase units to the extent of 50%. One saccharase unit (SU) is the amount of enzyme which under the test conditions specified splits 1 μmol of sucrose to glucose and fructose per minute. The μmols of glucose formed are determined quantitatively by means of the glucose oxidase reaction under conditions under which a further splitting of the sucrose by the saccharase no longer takes place. To carry out the test, 0.05 ml of solubilized saccharase [from the mucous membrane of the small intestine of the pig, according to B. Borgastrom, A. Dahlquist, Acta Chem. Scand. 12, (1958), page 1,997], diluted with 0.1 M sodium maleate buffer of pH 6.0 to a SU content adjusted to 0.12 SU is mixed with 0-20 μg of inhibitor or 0-20 μl of the solution to be tested and brought up to 0.1 ml with 0.1 M sodium maleate buffer of pH 6.0. The mixture is equilibrated for 10 minutes at 35° C and 0.1 ml of an 0.05 M sucrose solution in 0.1 M sodium maleate buffer of pH 6.0, pre-warmed to 35° C, is then added. The mixture is incubated for 20 minutes at 35° C, the saccharase reaction is stopped by addition of 1 ml of glucose oxidase reagent, and the incubation is continued for a further 30 minutes at 35° C. (The glucose oxidase reagent is prepared by dissolving 2 mg of glucose oxidase, Boehringer, No. 15,423, in 100 ml of 0.565 M tris-HCl buffer of pH 7.0 and subsequently adding 1 ml of detergent solution (2 g of Triton X 100 + 8 g of 95% strength and analytical grade ethanol), 1 ml of dianisidine solution (260 mg of o-dianisidine. 2HCl in 20 ml of H2 O) and 0.5 ml of 0.1% strength aqueous peroxidase solution, Boehringer, No. 15,302). Thereafter, 1 ml of 50% strength H2 SO4 is added and a measurement carried out at 545 nm against a corresponding blank. To evaluate the results, the percentage inhibition of the saccharase employed is calculated and converted to SIU/g of SIU/liter from the 50% inhibition point, using a glucose calibration curve.

T1 sequence (P56729 with tags, fused parts or gaps): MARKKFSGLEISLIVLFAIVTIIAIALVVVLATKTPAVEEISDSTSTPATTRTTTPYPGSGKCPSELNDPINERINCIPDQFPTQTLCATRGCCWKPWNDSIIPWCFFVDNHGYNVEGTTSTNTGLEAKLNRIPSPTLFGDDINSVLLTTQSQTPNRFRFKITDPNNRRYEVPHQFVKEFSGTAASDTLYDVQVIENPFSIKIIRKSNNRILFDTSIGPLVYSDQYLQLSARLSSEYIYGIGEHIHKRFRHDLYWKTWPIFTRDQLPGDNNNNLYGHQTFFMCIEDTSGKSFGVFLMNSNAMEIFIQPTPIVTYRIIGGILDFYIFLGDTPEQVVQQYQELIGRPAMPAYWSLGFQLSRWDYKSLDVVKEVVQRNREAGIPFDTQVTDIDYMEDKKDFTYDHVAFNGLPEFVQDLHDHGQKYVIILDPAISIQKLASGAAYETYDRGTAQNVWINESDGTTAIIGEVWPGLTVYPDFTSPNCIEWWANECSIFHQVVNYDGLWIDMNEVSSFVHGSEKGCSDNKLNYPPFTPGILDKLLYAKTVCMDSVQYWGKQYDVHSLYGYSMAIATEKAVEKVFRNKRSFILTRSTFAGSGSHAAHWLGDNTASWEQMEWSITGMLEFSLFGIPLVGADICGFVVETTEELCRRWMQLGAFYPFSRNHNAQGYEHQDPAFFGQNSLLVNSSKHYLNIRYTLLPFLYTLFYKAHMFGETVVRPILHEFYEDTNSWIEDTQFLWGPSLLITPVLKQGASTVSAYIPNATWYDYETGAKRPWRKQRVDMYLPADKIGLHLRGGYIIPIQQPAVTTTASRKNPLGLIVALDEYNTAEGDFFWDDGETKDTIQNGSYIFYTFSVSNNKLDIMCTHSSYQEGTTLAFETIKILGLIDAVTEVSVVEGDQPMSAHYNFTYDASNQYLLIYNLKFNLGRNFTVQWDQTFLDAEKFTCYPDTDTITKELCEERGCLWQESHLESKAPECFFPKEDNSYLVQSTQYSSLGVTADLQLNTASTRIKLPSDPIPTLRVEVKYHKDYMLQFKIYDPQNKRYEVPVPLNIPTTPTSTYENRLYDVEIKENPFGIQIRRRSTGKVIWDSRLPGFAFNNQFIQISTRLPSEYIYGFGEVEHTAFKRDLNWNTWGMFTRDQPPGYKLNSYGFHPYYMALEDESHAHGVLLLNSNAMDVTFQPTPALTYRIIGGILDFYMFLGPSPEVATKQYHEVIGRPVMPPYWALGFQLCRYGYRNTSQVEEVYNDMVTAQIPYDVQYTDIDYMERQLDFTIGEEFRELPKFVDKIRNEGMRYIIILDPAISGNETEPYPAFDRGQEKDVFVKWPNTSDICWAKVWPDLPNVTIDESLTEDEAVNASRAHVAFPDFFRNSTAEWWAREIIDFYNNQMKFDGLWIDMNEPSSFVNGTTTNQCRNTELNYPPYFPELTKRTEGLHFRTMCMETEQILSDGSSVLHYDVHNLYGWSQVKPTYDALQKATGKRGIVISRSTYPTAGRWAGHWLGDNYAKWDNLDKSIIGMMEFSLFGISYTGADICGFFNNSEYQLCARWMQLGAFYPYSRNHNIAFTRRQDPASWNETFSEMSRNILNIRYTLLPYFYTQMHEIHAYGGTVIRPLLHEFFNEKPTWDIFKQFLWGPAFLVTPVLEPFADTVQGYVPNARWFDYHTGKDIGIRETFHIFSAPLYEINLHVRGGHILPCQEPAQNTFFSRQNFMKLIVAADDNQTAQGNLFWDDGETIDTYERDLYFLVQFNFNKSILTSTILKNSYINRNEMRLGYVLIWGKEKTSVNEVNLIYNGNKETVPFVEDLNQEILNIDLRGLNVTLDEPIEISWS

C[C@H]1O[C@H](O[C@H]2[C@H](O)[C@@H](O)[C@@H](O[C@H]3[C@H](O)[C@@H](O)[C@@H](O[C@H]4[C@H](O)[C@@H](O)C(O)O[C@@H]4CO)O[C@@H]3CO)O[C@@H]2CO)[C@H](O)[C@@H](O)[C@@H]1N[C@H]1C=C(CO)[C@@H](O)[C@H](O)[C@H]1O (stereo partly drawn) [Formula IV, O-{4,6-bisdesoxy-4-[1S-(1,4,6/5)-4,5,6-trihydroxy-3-hydroxymethylcyclohex-2-en-1-ylamino]-α-D-glucopyranosyl}-(1→4)-O-α-D-glucopyranosyl-(1→4)-O-α-D-glucopyranosyl-(1→4)-D-glycopyranose]
in vitro saccharase inhibiting activity: 19000 SIU/g
